The values below are quoted from earlier work in article PMC6243681 (Chemical Science, 2018).

THRPPMWSPVWP: the “stability in serum / to serum proteases” value is recorded as “low stability”.
